In patent publication US11332455B2, “α,β-unsaturated amide compound” (KYOWA KIRIN CO., LTD., priority 2015, dated 2022):
One block for each compound: values may come before it.

Experiments:
Experiment in all cases: Cell growth inhibitory effect, cell counting kit 8, 6 days
Assay type in all cases: cell-based
[1] = test system: HuH28, a human liver cancer cell line; conditions: 144 h, HuH28 cells, 6 days incubation
From the text: (§1) Cell growth inhibitory effect on human mesothelioma, human liver cancer, human ovarian cancer, and […]
(§2) NCI-H226 cells, a human mesothelioma cell line (ATCC, CRL-5826), NCI-H322 cells, a human lung cancer cell line (the European Collection of Authenticated Cell Cultures, 95111734), OVTOKO cells, a human ovarian cancer cell line (JCRB cell bank, JCRB1048) and HuH28, a human liver cancer cell line (JCRB cell bank, JCRB0426) were each subcultured by keeping the cell density under 80% in a RPMI1640 culture medium with 10% fetal bovine serum (FBS). NCI-H226 cells, NCI-H322 cells and SSP-25 cells were each suspended in the RPM11640 culture medium mentioned above, and plated to a 96-well flat-bottom plate at 500 cells/well in each well, and incubated at 37° C. in an incubator with 5% CO2 for one day. After the incubation, the evaluation of cell growth inhibitory activity was started. OVTOKO cells were suspended in the RPMI1640 culture medium mentioned above, and plated to a 96-well flat-bottom plate at 250 cells/well in each well, and incubated it at 37° C. in an incubator with 5% CO2 for one day. After the incubation, the evaluation of the cell growth inhibitory activity was started. The next day, a test compound was serially diluted to 5 times of its final concentration in the RPM11640 culture medium mentioned above, and the diluted solution was added to each well. In this case, the final concentration of DMSO in each well was adjusted to 0.1%. After the test compound was added, cells were incubated at 37° C. in an incubator with 5% CO2 for 6 days. At the addition of the test compound and 6 days after the addition, the cell counting measurement was performed using a cell counting kit 8 (made by DOJINDO) according to a protocol equivalent to DOJINDO's recommendation. A reagent contained in the kit was added to each plate and color reaction was performed for 2 or 3 hours at 37° C. in an incubator with 5% CO2. After the reaction, an absorbance at wavelength of 450 nm was measured using a microplate reader. A growth inhibition rate was calculated according to the following formula, from which the concentration of a test compound at which cell growth was inhibited by 50% (GI50 value) was determined.

[2] = test system: NCI-H322 cells, a human lung cancer cell line; conditions: 144 h, 6 days incubation
From the text: as §1, §2

[3] = test system: NCI-H226 cells, a human mesothelioma cell line; conditions: 144 h, 6 days incubation
From the text: as §1, §2

[4] = group 100 nmol/L to 1 μmol/L (upper bound given in μmol/L)

SMILES: C=CC(=O)NCc1ccc(Oc2cccc(C(F)(F)F)c2)c2ncccc12 [Compound 137, N-([8-{3-(Trifluoromethyl)phenoxy}quinolin-5-yl]methyl)acrylamide]
- GI50 [1]: < 3000 nM
- GI50 [2]: < 1000 nM
- GI50 ([3]; group less than 100 nmol/L): < 100 nM

SMILES: C=CC(=O)NCc1cc(Oc2ccnc(Cl)c2)nc2ccccc12 [Compound 150, N-([2-{(2-Chloropyridin-4-yl)oxy}quinolin-4-yl]methyl)acrylamide]
- GI50 [1]: < 3000 nM
- GI50 [2]: < 1000 nM
- GI50 ([3]; group less than 100 nmol/L): < 100 nM

SMILES: C=CC(=O)Nc1cncc(Oc2cncc(C(F)(F)F)c2)c1 [Compound 107, N-(5-[{5-(Trifluoromethyl)pyridin-3-yl}oxy]pyridin-3-yl)acrylamide]
- GI50 [1]: < 3000 nM
- GI50 [2]: < 1000 nM
- GI50 ([3]; group less than 100 nmol/L): < 100 nM

SMILES: C=CC(=O)Nc1cncc(Oc2ccc(C(F)(F)F)cn2)c1 [Compound 109, N-(5-[{5-(Trifluoromethyl)pyridin-2-yl}oxy]pyridin-3-yl)acrylamide]
- GI50 [2]: < 1000 nM
- GI50 ([3]; group less than 100 nmol/L): < 100 nM

SMILES: C=CC(=O)NCc1ccc(Oc2ccc(C(F)(F)F)cc2)c2cccnc12 [Compound 216, N-([5-{4-(Trifluoromethyl)phenoxy}quinolin-8-yl]methyl)acrylamide]
- GI50 [2]: < 1000 nM
- GI50 ([3]; group less than 100 nmol/L): < 100 nM

SMILES: C=CC(=O)NC1COc2c(cccc2Oc2ccc(C(F)(F)F)nc2)C1 (stereo not drawn) [Compound 229, N-(8-[{6-(Trifluoromethyl)pyridin-3-yl}oxy]chroman-3-yl)acrylamide]
- GI50 [2]: < 1000 nM
- GI50 ([3]; group less than 100 nmol/L): < 100 nM

SMILES: C=CC(=O)NCc1cc(Oc2ccc(C(F)(F)F)cc2)cc2ncccc12 [Compound 220, N-([7-{4-(Trifluoromethyl)phenoxy}quinolin-5-yl]methyl)acrylamide]
- GI50 [2]: < 1000 nM
- GI50 [3, 4]: 100 to 1000 nM

SMILES: C=CC(=O)NCc1ccc(Oc2ccc(C(F)(F)F)nc2)c2cccnc12 [Compound 219, N-{(5-[{6-(Trifluoromethyl)pyridin-3-yl}oxy]quinolin-8-yl)methyl}acrylamide]
- GI50 [2]: < 1000 nM
- GI50 ([3]; group less than 100 nmol/L): < 100 nM

SMILES: C=CC(=O)NC1COc2c(cccc2Oc2cnc(C(F)(F)F)cn2)C1 (stereo not drawn) [Compound 157, N-(8-[{5-(Trifluoromethyl)pyrazin-2-yl}oxy]chroman-3-yl)acrylamide]
- GI50 [2]: < 1000 nM
- GI50 ([3]; group less than 100 nmol/L): < 100 nM

SMILES: C=CC(=O)NCc1cc(Oc2ccc(C(F)(F)F)cc2)cc2cccnc12 [Compound 221, N-([6-{4-(Trifluoromethyl)phenoxy}quinolin-8-yl]methyl)acrylamide]
- GI50 [3, 4]: 100 to 1000 nM

SMILES: C=CC(=O)NC1COc2c(cc(Br)cc2Oc2ccc(C(F)(F)F)nc2)C1 (racemic) [Compound 153, N-(6-Bromo-8-[{6-(trifluoromethyl)pyridin-3-yl}oxy]chroman-3-yl) acrylamide]
- GI50 [3, 4]: 100 to 1000 nM

SMILES: C=CC(=O)NC1COc2c(cccc2Oc2cccc(C(F)(F)F)c2)C1 (stereo not drawn) [Compound 43, N-[8-{3-(Trifluoromethyl)phenoxy}chroman-3-yl]acrylamide]
- GI50 ([3]; group less than 100 nmol/L): < 100 nM

SMILES: C=CC(=O)NCc1ccc(Oc2ccc(Cl)nc2)c2ncccc12 [Compound 142, N-([8-{(6-Chloropyridin-3-yl)oxy}quinolin-5-yl]methyl)acrylamide]
- GI50 [3, 4]: 100 to 1000 nM

SMILES: C=CC(=O)NCc1cc(Oc2ccc(C(F)(F)F)cc2)nc2ccccc12 [Compound 146, N-([2-{4-(Trifluoromethyl)phenoxy}quinolin-4-yl]methyl)acrylamide]
- GI50 [3, 4]: 100 to 1000 nM

SMILES: C=CC(=O)NC1COc2c(cc(C(F)(F)F)cc2Oc2ccc(C(F)(F)F)nc2)C1 (stereo not drawn) [Compound 162, N-{6-(Trifluoromethyl)-8-[{6-(trifluoromethyl)pyridin-3-yl}oxy]chroman-3-yl}acrylamide]
- GI50 [2]: < 1000 nM
- GI50 [3, 4]: 100 to 1000 nM

SMILES: C=CC(=O)Nc1cncc(Oc2ccc(C(F)(F)F)c(F)c2)c1 [Compound 106, N-[5-{3-Fluoro-4-(trifluoromethyl)phenoxy}pyridin-3-yl]acrylamide]
- GI50 [2]: < 1000 nM
- GI50 [3, 4]: 100 to 1000 nM

Other lines, results leading:

- GI50 [2]: < 1000 nM
- GI50 ([3]; group less than 100 nmol/L): < 100 nM
SMILES: C=CC(=O)NC1COc2c(Oc3ccc(Cl)cc3)ccc(C)c2C1 (stereo not drawn) [Compound 41, N-{8-(4-Chlorophenoxy)-5-methylchroman-3-yl}acrylamide]

- GI50 [2]: < 1000 nM
- GI50 ([3]; group less than 100 nmol/L): < 100 nM
SMILES: C=CC(=O)NC1COc2cccc(Oc3ccc(C(F)(F)F)cc3)c2C1 (stereo not drawn) [Compound 35, N-[5-{4-(Trifluoromethyl)phenoxy}chroman-3-yl]acrylamide]

- GI50 [2]: < 1000 nM
- GI50 ([3]; group less than 100 nmol/L): < 100 nM
SMILES: C=CC(=O)N[C@H]1CC[C@@H](Oc2ccc(C(F)(F)F)cc2)c2nc(C)ccc21 (relative stereo) [Compound 184, cis-N-[2-Methyl-8-{4-(trifluoromethyl)phenoxy}-5,6,7,8-tetrahydroquinolin-5-yl]acrylamide]

- GI50 [1]: < 3000 nM
- GI50 [2]: < 1000 nM
- GI50 ([3]; group less than 100 nmol/L): < 100 nM
SMILES: C=CC(=O)NCc1ccc(Oc2ccc(Cl)cc2)c2ncccc12 [Compound 134, N-[{8-(4-Chlorophenoxy)quinolin-5-yl}methyl]acrylamide]

- GI50 [2]: < 1000 nM
- GI50 ([3]; group less than 100 nmol/L): < 100 nM
SMILES: C=CC(=O)NC1CCOc2c1ccc(Oc1ccc(Cl)cc1)c2C (stereo not drawn) [Compound 27, N-{7-(4-Chlorophenoxy)-8-methylchroman-4-yl}acrylamide]

- GI50 [2]: < 1000 nM
- GI50 ([3]; group less than 100 nmol/L): < 100 nM
SMILES: C=CC(=O)N[C@H]1CC[C@@H](Oc2ccc(Cl)cc2)c2nc(Cl)ccc21 (relative stereo) [Compound 70, cis-N-{2-Chloro-8-(4-chlorophenoxy)-5,6,7,8-tetrahydroquinolin-5-yl}acrylamide]

- GI50 [2]: < 1000 nM
- GI50 ([3]; group less than 100 nmol/L): < 100 nM
SMILES: C=CC(=O)NC1COc2c(cccc2Oc2ccc(Cl)cc2)C1 (stereo not drawn) [Compound 59, N-{8-(4-chlorophenoxy)chroman-3-yl}acrylamide]

- GI50 [2]: < 1000 nM
- GI50 ([3]; group less than 100 nmol/L): < 100 nM
SMILES: C=CC(=O)N[C@H]1CC[C@@H](Oc2ccc(Cl)cc2)c2nc(OC)ccc21 (relative stereo) [Compound 71, cis-N-{8-(4-Chlorophenoxy)-2-methoxy-5,6,7,8-tetrahydroquinolin-5-yl}acrylamide]

- GI50 [2]: < 1000 nM
SMILES: C=CC(=O)NC1COc2cc(Oc3ccc(Cl)cc3)ccc2C1 (stereo not drawn) [Compound 37, N-{7-(4-Chlorophenoxy)chroman-3-yl}acrylamide]

- GI50 [2]: < 1000 nM
- GI50 ([3]; group less than 100 nmol/L): < 100 nM
SMILES: C=CC(=O)NC1COc2c(cccc2Oc2ccc(C(F)(F)F)nc2)C1 (racemic) [Compound 51, N-(8-[{6-(Trifluoromethyl)pyridin-3-yl}oxy]chroman-3-yl)acrylamide]

- GI50 [2]: < 1000 nM
- GI50 ([3]; group less than 100 nmol/L): < 100 nM
SMILES: C=CC(=O)NC1CCOc2c1ccc(Oc1ccc(Cl)cc1)c2OC (stereo not drawn) [Compound 32, N-{7-(4-Chlorophenoxy)-8-methoxychroman-4-yl}acrylamide]

- GI50 [2]: < 1000 nM
SMILES: C=CC(=O)NC1CCC(Oc2ccc(C(F)(F)F)cc2)c2cnccc21 (stereo not drawn) [Compound 228, N-[8-{4-(Trifluoromethyl)phenoxy}-5,6,7,8-tetrahydroisoquinolin-5-yl]acrylamide]

- GI50 [2]: < 1000 nM
SMILES: C=CC(=O)NC1COc2c(cccc2Oc2ccc(C(F)(F)F)cn2)C1 (stereo not drawn) [Compound 64, N-(8-[{5-(Trifluoromethyl)pyridin-2-yl}oxy]chroman-3-yl)acrylamide]

- GI50 [2]: < 1000 nM
- GI50 ([3]; group less than 100 nmol/L): < 100 nM
SMILES: C=CC(=O)N[C@@H]1c2ccc(Oc3ccc(C(F)(F)F)cc3)cc2OC[C@@H]1F (relative stereo) [Compound 21, cis-N-[3-Fluoro-7-{4-(trifluoromethyl)phenoxy}chroman-4-yl]acrylamide]

- GI50 [2]: < 1000 nM
- GI50 ([3]; group less than 100 nmol/L): < 100 nM
SMILES: C=CC(=O)N[C@H]1CC[C@@H](Oc2ccc(C(F)(F)F)cc2)c2nc(Cl)ccc21 (relative stereo) [Compound 76, cis-N-[2-Chloro-8-{4-(trifluoromethyl)phenoxy}-5,6,7,8-tetrahydroquinolin-5-yl]acrylamide]

- GI50 [2]: < 1000 nM
- GI50 ([3]; group less than 100 nmol/L): < 100 nM
SMILES: C=CC(=O)N[C@H]1CC[C@H](Oc2ccc(C(F)(F)F)cc2)c2nc(Cl)ccc21 (relative stereo) [Compound 82, trans-N-[2-Chloro-8-{4-(trifluoromethyl)phenoxy}-5,6,7,8-tetrahydroquinolin-5-yl]acrylamide]

- GI50 [3, 4]: 100 to 1000 nM
SMILES: C=CC(=O)Nc1cnc(C)c(Oc2ccc(Cl)cc2)c1 [Compound 92, N-{5-(4-Chlorophenoxy)-6-methylpyridin-3-yl}acrylamide]

- GI50 [3, 4]: 100 to 1000 nM
SMILES: C=CC(=O)Nc1cncc(Oc2ccc(Cl)cc2)c1 [Compound 94, N-{5-(4-chlorophenoxy)pyridin-3-yl}acrylamide]

- GI50 [2]: < 1000 nM
SMILES: C=CC(=O)NC1COc2c(cccc2Oc2ccc(C(F)(F)F)cc2)C1 (stereo not drawn) [Compound 61, N-[8-{4-(Trifluoromethyl)phenoxy}chroman-3-yl]acrylamide]
